Reference: the NIST ThermoML archive (doi:10.1021/acs.jced.7b00945)
Numbers after ± are expanded uncertainties.

Legend:
[1] = refractive index (Na D-line) (dimensionless); wn = mass fraction of the nth substance listed; conditions: 303 K, 100 kPa, Liquid, Standard Abbe refractometry
[2] = refractive index (Na D-line) (dimensionless); conditions: 303 K; 100 kPa; Liquid; Standard Abbe refractometry

| refractive index ([1]; w2 = 0.3) | refractive index ([1]; w2 = 0.41) | refractive index ([1]; w2 = 0.5) | refractive index ([1]; w2 = 0.6) | refractive index ([1]; w2 = 0.7) | refractive index ([1]; w2 = 0.8) | Compound | refractive index ([1]; w1 = 1) | also measured |
| --- | --- | --- | --- | --- | --- | --- | --- | --- |
| – | – | – | – | – | – | O [water] + OCCOCCOCCOCCO | 1.33179 ± 0.00032 | – |
| – | – | – | – | – | – | O [water] | – | refractive index [2]: 1.33179 ± 0.00032 |
| – | – | – | – | – | – | O [water] + OCCOCCOCCO | 1.33179 ± 0.00032 | – |
| – | – | – | – | – | – | O [water] + OCCO | 1.33179 ± 0.00032 | – |
| – | – | – | – | – | – | O [water] + OCCOCCO | 1.33179 ± 0.00032 | – |
| 1.4008 ± 0.00038 | 1.38994 ± 0.00038 | 1.38106 ± 0.00038 | 1.37126 ± 0.00038 | 1.36074 ± 0.00038 | 1.35122 ± 0.00038 | OCCO [1,2-ethanediol] + O | – | refractive index ([1]; w2 = 0.1): 1.4196 ± 0.00038; refractive index ([1]; w2 = 0.2): 1.41005 ± 0.00038; refractive index ([1]; w2 = 0.89): 1.34168 ± 0.00037 |
| 1.41992 ± 0.00042 | 1.40643 ± 0.00043 | 1.39413 ± 0.00042 | 1.38175 ± 0.00042 | 1.36838 ± 0.00041 | 1.35616 ± 0.0004 | OCCOCCOCCO [triethylene glycol] + O | – | refractive index ([1]; w2 = 0.1): 1.44204 ± 0.00042; refractive index ([1]; w2 = 0.21): 1.43047 ± 0.00042; refractive index ([1]; w2 = 0.9): 1.34378 ± 0.0004 |

| Compound | refractive index ([1]; w2 = 0.3) | refractive index ([1]; w2 = 0.41) | refractive index ([1]; w2 = 0.5) | refractive index ([1]; w2 = 0.6) | refractive index ([1]; w2 = 0.7) | refractive index ([1]; w2 = 0.8) | refractive index ([1]; w1 = 1) | also measured |
| --- | --- | --- | --- | --- | --- | --- | --- | --- |
| OCCOCCO [diethylene glycol] + O | 1.41341 ± 0.00041 | 1.40107 ± 0.00042 | 1.38922 ± 0.00041 | 1.37817 ± 0.0004 | 1.36617 ± 0.0004 | 1.35413 ± 0.0004 | – | refractive index ([1]; w2 = 0.11): 1.43408 ± 0.00043; refractive index ([1]; w2 = 0.2): 1.42406 ± 0.00042; refractive index ([1]; w2 = 0.9): 1.34259 ± 0.00039 |
